From ChEMBL document CHEMBL3885881, “DrugMatrix”

Species: Rattus norvegicus
Assay: DrugMatrix - Regimen: Daily Repeat
Format: toxicity, organism-based, Sprague-Dawley
Parameters: regimen Daily Repeat, gender Male, age 6-8 weeks
Details: in vivo, iv, vehicle 100 % SALINE; for ABSOLUTE BASOPHIL / ABSOLUTE EOSINOPHIL / ABSOLUTE LYMPHOCYTE / ABSOLUTE MONOCYTE / ABSOLUTE SEGMENTED NEUTROPHIL / BASOPHIL / EOSINOPHIL / ERYTHROCYTE COUNT / HEMATOCRIT / HEMOGLOBIN / LEUKOCYTE COUNT / LYMPHOCYTE / MEAN CORPUSCULAR HEMOGLOBIN / MEAN CORPUSCULAR HEMOGLOBIN CONCENTRATION / MEAN CORPUSCULAR VOLUME / MONOCYTE / NEUTROPHIL / NUCLEATED RED BLOOD CELLS / PLATELET COUNT: tissue Blood; for ALANINE AMINOTRANSFERASE / ALBUMIN / ALKALINE PHOSPHATASE / ASPARTATE AMINOTRANSFERASE / BLOOD UREA NITROGEN / CARBON DIOXIDE / CHLORIDE / CHOLESTEROL / CREATINE PHOSPHOKINASE / CREATININE / GLUCOSE / LACTATE DEHYDROGENASE / LIPASE / PHOSPHORUS / POTASSIUM / SODIUM / TOTAL BILIRUBIN / TOTAL PROTEIN / URIC ACID: tissue Plasma
[1] = 2 mg/kg, 72 h, dose level Low, time 3 day
[2] = 2 mg/kg, 120 h, dose level Low, time 5 day
[3] = 20 mg/kg, 72 h, dose level High, time 3 day
[4] = 20 mg/kg, 120 h, dose level High, time 5 day

## CCN1CC(CCN2CCOCC2)C(c2ccccc2)(c2ccccc2)C1=O (configuration not stated) [DOXAPRAM]
[1]
  ABSOLUTE BASOPHIL: 0 CELLS/uL
  ABSOLUTE EOSINOPHIL: 0 CELLS/uL
  ABSOLUTE LYMPHOCYTE: 13662.33 CELLS/uL
  ABSOLUTE MONOCYTE: 351.67 CELLS/uL
  ABSOLUTE SEGMENTED NEUTROPHIL: 2319.33 CELLS/uL
  BASOPHIL: 0%
  EOSINOPHIL: 0%
  ERYTHROCYTE COUNT: 5.67 x10E6/uL
  HEMATOCRIT: 35.7%
  HEMOGLOBIN: 14.2 G/DL
  LEUKOCYTE COUNT: 16.33 x10E3/uL
  LYMPHOCYTE: 84%
  MEAN CORPUSCULAR HEMOGLOBIN: 25.1 pg
  MEAN CORPUSCULAR HEMOGLOBIN CONCENTRATION: 39.77 G/DL
  MEAN CORPUSCULAR VOLUME: 63.03 fL
  MONOCYTE: 2%
  NEUTROPHIL: 14%
  NUCLEATED RED BLOOD CELLS: 0 /100WBC
  PLATELET COUNT: 1174 x10E3/uL
  ALANINE AMINOTRANSFERASE: 72.33 u/L
  ALBUMIN: 3.93 G/DL
  ALKALINE PHOSPHATASE: 296.67 u/L
  ASPARTATE AMINOTRANSFERASE: 101 u/L
  BLOOD UREA NITROGEN: 17 mg/dL
  CARBON DIOXIDE: 26.33 mmol/L
  CHLORIDE: 101.33 MEQ/L
  CHOLESTEROL: 83.33 mg/dL
  CREATINE PHOSPHOKINASE: 298.67 u/L
  CREATININE: 0.15 mg/dL
  GLUCOSE: 149 mg/dL
  LACTATE DEHYDROGENASE: 372.67 u/L
  LIPASE: 8 u/L
  PHOSPHORUS: 12.83 mg/dL
  POTASSIUM: 7.17 MEQ/L
  SODIUM: 146.3 MEQ/L
  TOTAL BILIRUBIN: 0.17 mg/dL
  TOTAL PROTEIN: 6.1 G/DL
  URIC ACID: 1.53 mg/dL
[2]
  ABSOLUTE BASOPHIL: 0 CELLS/uL
  ABSOLUTE EOSINOPHIL: 0 CELLS/uL
  ABSOLUTE LYMPHOCYTE: 13405 CELLS/uL
  ABSOLUTE MONOCYTE: 468.67 CELLS/uL
  ABSOLUTE SEGMENTED NEUTROPHIL: 2059.67 CELLS/uL
  BASOPHIL: 0%
  EOSINOPHIL: 0%
  ERYTHROCYTE COUNT: 6.04 x10E6/uL
  HEMATOCRIT: 37.2%
  HEMOGLOBIN: 14.8 G/DL
  LEUKOCYTE COUNT: 15.93 x10E3/uL
  LYMPHOCYTE: 84%
  MEAN CORPUSCULAR HEMOGLOBIN: 24.5 pg
  MEAN CORPUSCULAR HEMOGLOBIN CONCENTRATION: 39.8 G/DL
  MEAN CORPUSCULAR VOLUME: 61.53 fL
  MONOCYTE: 3%
  NEUTROPHIL: 13%
  NUCLEATED RED BLOOD CELLS: 0.67 /100WBC
  PLATELET COUNT: 1035 x10E3/uL
  ALANINE AMINOTRANSFERASE: 97.67 u/L
  ALBUMIN: 3.97 G/DL
  ALKALINE PHOSPHATASE: 400.33 u/L
  ASPARTATE AMINOTRANSFERASE: 101.33 u/L
  BLOOD UREA NITROGEN: 15.33 mg/dL
  CARBON DIOXIDE: 26.33 mmol/L
  CHLORIDE: 101.33 MEQ/L
  CHOLESTEROL: 65.33 mg/dL
  CREATINE PHOSPHOKINASE: 230 u/L
  CREATININE: 0.14 mg/dL
  GLUCOSE: 159.33 mg/dL
  LACTATE DEHYDROGENASE: 100.67 u/L
  LIPASE: 8.33 u/L
  PHOSPHORUS: 12.7 mg/dL
  POTASSIUM: 6.47 MEQ/L
  SODIUM: 144.37 MEQ/L
  TOTAL BILIRUBIN: 0.13 mg/dL
  TOTAL PROTEIN: 6.17 G/DL
  URIC ACID: 1.6 mg/dL
[3]
  ABSOLUTE BASOPHIL: 0 CELLS/uL
  ABSOLUTE EOSINOPHIL: 173.33 CELLS/uL
  ABSOLUTE LYMPHOCYTE: 15104 CELLS/uL
  ABSOLUTE MONOCYTE: 284 CELLS/uL
  ABSOLUTE SEGMENTED NEUTROPHIL: 1672 CELLS/uL
  BASOPHIL: 0%
  EOSINOPHIL: 1%
  ERYTHROCYTE COUNT: 5.38 x10E6/uL
  HEMATOCRIT: 34.17%
  HEMOGLOBIN: 13.5 G/DL
  LEUKOCYTE COUNT: 17.23 x10E3/uL
  LYMPHOCYTE: 87.67%
  MEAN CORPUSCULAR HEMOGLOBIN: 25.13 pg
  MEAN CORPUSCULAR HEMOGLOBIN CONCENTRATION: 39.53 G/DL
  MEAN CORPUSCULAR VOLUME: 63.6 fL
  MONOCYTE: 1.67%
  NEUTROPHIL: 9.67%
  NUCLEATED RED BLOOD CELLS: 0 /100WBC
  PLATELET COUNT: 1285.33 x10E3/uL
  ALANINE AMINOTRANSFERASE: 51.67 u/L
  ALBUMIN: 4.33 G/DL
  ALKALINE PHOSPHATASE: 402.67 u/L
  ASPARTATE AMINOTRANSFERASE: 102.67 u/L
  BLOOD UREA NITROGEN: 15 mg/dL
  CARBON DIOXIDE: 21.67 mmol/L
  CHLORIDE: 102 MEQ/L
  CHOLESTEROL: 79 mg/dL
  CREATINE PHOSPHOKINASE: 445.33 u/L
  CREATININE: 0.15 mg/dL
  GLUCOSE: 149.33 mg/dL
  LACTATE DEHYDROGENASE: 669.33 u/L
  LIPASE: 9 u/L
  PHOSPHORUS: 13.03 mg/dL
  POTASSIUM: 6.9 MEQ/L
  SODIUM: 143.67 MEQ/L
  TOTAL BILIRUBIN: 0.17 mg/dL
  TOTAL PROTEIN: 5.93 G/DL
  URIC ACID: 1.7 mg/dL
[4]
  ABSOLUTE BASOPHIL: 0 CELLS/uL
  ABSOLUTE EOSINOPHIL: 118.67 CELLS/uL
  ABSOLUTE LYMPHOCYTE: 15901.33 CELLS/uL
  ABSOLUTE MONOCYTE: 415.33 CELLS/uL
  ABSOLUTE SEGMENTED NEUTROPHIL: 1364.67 CELLS/uL
  BASOPHIL: 0%
  EOSINOPHIL: 0.67%
  ERYTHROCYTE COUNT: 5.51 x10E6/uL
  HEMATOCRIT: 34.63%
  HEMOGLOBIN: 13.57 G/DL
  LEUKOCYTE COUNT: 17.8 x10E3/uL
  LYMPHOCYTE: 89.33%
  MEAN CORPUSCULAR HEMOGLOBIN: 24.63 pg
  MEAN CORPUSCULAR HEMOGLOBIN CONCENTRATION: 39.17 G/DL
  MEAN CORPUSCULAR VOLUME: 62.8 fL
  MONOCYTE: 2.33%
  NEUTROPHIL: 7.67%
  NUCLEATED RED BLOOD CELLS: 0 /100WBC
  PLATELET COUNT: 1309.33 x10E3/uL
  ALANINE AMINOTRANSFERASE: 57 u/L
  ALBUMIN: 4.33 G/DL
  ALKALINE PHOSPHATASE: 365.67 u/L
  ASPARTATE AMINOTRANSFERASE: 95.67 u/L
  BLOOD UREA NITROGEN: 16 mg/dL
  CARBON DIOXIDE: 23.33 mmol/L
  CHLORIDE: 102.67 MEQ/L
  CHOLESTEROL: 66.33 mg/dL
  CREATINE PHOSPHOKINASE: 259 u/L
  CREATININE: 0.18 mg/dL
  GLUCOSE: 166 mg/dL
  LACTATE DEHYDROGENASE: 229 u/L
  LIPASE: 8.33 u/L
  PHOSPHORUS: 13.17 mg/dL
  POTASSIUM: 6.59 MEQ/L
  SODIUM: 144.97 MEQ/L
  TOTAL BILIRUBIN: 0.23 mg/dL
  TOTAL PROTEIN: 5.93 G/DL
  URIC ACID: 2.2 mg/dL
